These results are taken from patent US12304898B2, “Quinolyl-containing compound and pharmaceutical composition, and use thereof” (PrimeGene (Beijing) Co., Ltd., priority 2019, dated 2025).

Chain of VEGFR2 (KDR) (P35968 790-1356): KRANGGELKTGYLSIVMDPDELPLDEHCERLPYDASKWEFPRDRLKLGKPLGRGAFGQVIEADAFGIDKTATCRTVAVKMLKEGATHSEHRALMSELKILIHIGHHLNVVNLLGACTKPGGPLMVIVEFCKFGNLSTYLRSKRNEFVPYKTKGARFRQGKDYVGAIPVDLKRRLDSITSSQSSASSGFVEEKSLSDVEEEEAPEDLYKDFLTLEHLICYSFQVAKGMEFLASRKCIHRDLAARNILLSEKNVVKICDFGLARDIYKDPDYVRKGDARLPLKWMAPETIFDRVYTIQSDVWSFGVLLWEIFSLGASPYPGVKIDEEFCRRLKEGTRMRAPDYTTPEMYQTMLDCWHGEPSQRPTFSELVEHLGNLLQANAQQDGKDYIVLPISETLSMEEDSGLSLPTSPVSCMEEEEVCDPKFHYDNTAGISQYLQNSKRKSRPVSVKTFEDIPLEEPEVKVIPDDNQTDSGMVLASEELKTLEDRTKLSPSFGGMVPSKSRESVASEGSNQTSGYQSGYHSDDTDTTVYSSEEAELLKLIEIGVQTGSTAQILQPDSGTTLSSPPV

System in one data set: not listed separately
Kind of data set: Pharmacokinetic experiment in rats after intragastric administration. Type of data set: in vivo. Particulars: rat, po, female SD rats, 10 mg/kg, plasma. On the procedure: The female SD rats were divided into groups, 3 rats in each group, and the example compounds 10, 12, 24, 57, 61, 89, 90, 93, 94, 96 (10 mg/kg) were administered by intragastric administration. Fasting overnight before administration, and the fasting time was from 10 hours before administration to 4 hours after administration. Blood was collected at 0.25, 0.5, 1, 2, 4, 8 and 24 hours after administration. Small animal anesthesia machine was used for isoflurane anesthesia. After that, 0.3 mL of whole blood was collected from the fundus venous plexus and placed in a heparin anticoagulation tube. The sample was centrifuged at 4° C., 4000 rpm, for 5 minutes, and the plasma was transferred to a centrifuge tube, and stored at −80° C. until analysis. The plasma sample was extracted by protein precipitation method, and the extract was processed and analyzed by LC/MS/MS.
As to `COc1cc2c(Oc3ccc(NC(=O)C4(C(=O)Nc5ccc(F)cc5)CC4)cc3F)ccnc2cc1OCCCCCCSC(C)=O` [Example 10, S-(6-((4-(2-fluoro-4-(1-((4-fluorophenyl)aminoformyl)cyclopropane-1-carboxamido)phenoxy)-6-methoxyquinolin-7-yl)oxy)hexyl)-acetylthioester], the AUC(0-inf) is 468 ng·h/mL, the highest level (Cmax) was 377 ng/mL, the Tmax is 0.833 h and the half-life is 1.24 h.
Consider `COc1cc2c(Oc3ccc(NC(=O)C4(C(=O)Nc5ccc(F)cc5)CC4)cc3F)ccnc2cc1OC/C=C/CCCCSC(C)=O` [Example 24, (E)-S-(7-((4-(2-fluoro-4-(1-((4-fluorophenyl)aminoformyl)cyclopropane-1-carbamoyl)phenoxy)-6-methoxyquinolin-7-yl)oxy)heptyl-5-en-1-yl)acetylthio ester], for which the AUC(0-inf) amounted to 1070 ng·h/mL, the Cmax is 430 ng/mL, the Tmax came to 1.33 h and the half-life was 6.69 h.
For the compound `COc1cc2c(Oc3ccc(NC(=O)C4(C(=O)Nc5ccc(F)cc5)CC4)cc3F)ccnc2cc1OCCCCCNC(=O)CSC(C)=O` [Example 57, S-(2-((5-((4-(2-fluoro-4-(1-((4-fluorophenyl)carbamoyl)cyclopropane-1-carboxamido)phenoxy)-6-methoxyquinolin-7-yl)oxy)pentyl)amino)-2-oxo-ethyl)thioacetate], the total exposure AUC(0-inf) worked out at 2790 ng·h/mL, the peak level (Cmax) was 1590 ng/mL, the time to peak (Tmax) amounted to 0.33 h and the half-life is 6.42 h.
For `COc1cc2c(Oc3ccc(NC(=O)C4(C(=O)Nc5ccc(F)cc5)CC4)cc3F)ccnc2cc1OCCCCNC(=O)CSC(C)=O` [Example 61], in that order: 175 ng·h/mL, 121 ng/mL, 0.5 h and 1.84 h.
In the case of `COc1cc2c(Oc3ccc(NC(=O)C4(C(=O)Nc5ccc(F)cc5)CC4)cc3F)ccnc2cc1OCCCCCNC(=O)CSC(=O)C(C)(C)C` [Example 89, S-(2-((5-((4-(2-fluoro-4-(1-((4-fluorophenyl)carbamoyl)cyclopropane-1-carboxamido)phenoxy)-6-methoxyquinolin-7-yl)oxo)phenyl)amino)-2-oxo-ethyl)2,2-dimethylthiopropionate], the AUC(0-inf) was 1650 ng·h/mL, the Cmax is 1000 ng/mL, the time to peak (Tmax) was 0.833 h and the half-life is 5.94 h.
For `CCCCCCCC(=O)SCC(=O)NCCCCCOc1cc2nccc(Oc3ccc(NC(=O)C4(C(=O)Nc5ccc(F)cc5)CC4)cc3F)c2cc1OC` [Example 90], in that order: 689 ng·h/mL, 852 ng/mL, 0.333 h and 4.25 h.
On to `COc1cc2c(Oc3ccc(NC(=O)C4(C(=O)Nc5ccc(F)cc5)CC4)cc3F)ccnc2cc1OCCCCCNC(=O)CSC(=O)[C@H](N)Cc1cn(C)c2ccccc12` [Example 93, S-(2-((5-((4-(2-fluoro-4-(1-((4-fluorophenyl)carbamoyl)cyclopropane-1-carboxamido)phenoxy)-6-methoxyquinolin-7-yl)oxy)pentyl)amino)-2-oxo-ethyl)-(R)-2-amino-3-(1-methyl-1H-indol-3-yl)thiopropionate benzenesulfonate], for which the AUC(0-inf) was found to be 790 ng·h/mL, the highest concentration (Cmax) was 429 ng/mL, the Tmax turned out to be 0.667 h and the half-life is 5.49 h.
Consider `COc1cc2c(Oc3ccc(NC(=O)C4(C(=O)Nc5ccc(F)cc5)CC4)cc3F)ccnc2cc1OCCCCCNC(=O)CSC(=O)[C@@H](Cc1cn(C)c2ccccc12)NC(C)=O` [Example 94, S-(2-((5-((4-(2-Fluoro-4-(1-((4-fluorophenyl)carbamoyl)cyclopropane-1-carboxamido)phenoxy)-6-methoxyquinolin-7-yl)oxy)pentyl)amino)-2-oxo-ethyl)-(R)-2-acetylamino-3-(1-methyl-1H-indol-3-yl)thiopropionate], for which the AUC(0-inf) amounted to 499 ng·h/mL, the peak concentration (Cmax) was found to be 289 ng/mL, the Tmax stood at 0.5 h and the half-life is 6.14 h.
In the same order, the values of `COc1cc2c(Oc3ccc(NC(=O)C4(C(=O)Nc5ccc(F)cc5)CC4)cc3F)ccnc2cc1OCCCCCNC(=O)CSSC` [Example 96, N-(3-fluoro-4-((6-methoxy-7-((5-(2-(methyldisulfanyl)acetylamino)pentyl)oxy)quinolin-4-yl)oxy)phenyl)-N-(4-fluorophenyl)cyclopropyl-1,1-diformamide] are 1040 ng·h/mL, 724 ng/mL, 0.417 h and 6.92 h.

The target of a further data set is VEGFR2 (KDR) (Homo sapiens (Human), UniProt P35968). The data set can be described thus: VEGFR2 (KDR) mobility shift assay. Particulars: VEGFR2 0.5 nM, ATP 95 μM, read-out: IC50, inhibitory effect on kinase VEGFR2. Type of data set: biochemical. On the procedure:
Detect compounds on VEGFR2 (KDR) by mobility shift assay. The initial test concentration of a compound was 1000 nM, 3 times dilution, 10 concentrations, and detection in duplicate. Nintedanib (Selleckchem, Cat. S1010) was used as the positive control compound. The operation method was briefly described as follows: kinase VEGFR2 (Carna, Cat. 08-191) at the final concentration of 0.5 nM and the test compound were mixed in the Optiplate-384F well plate and incubated for 10 minutes at room temperature. Then, ATP at a final concentration of 95 μM and 3 μM Kinase substrate 22 (Gill Biochemical (glbiochem), Cat. 112393) were added. After mixing, react at room temperature for 30 minutes. Add stop detection solution to terminate the reaction and read the conversion rate with Caliper EZ ReaderlI.
Wherein, Conversion %_sample refers to the conversion rate reading of the sample; Conversion %_min: the average value of the negative control wells, which represents the conversion rate readings of the wells without enzyme activity; Conversion %_max: the average value of the positive control wells, represents the conversion rate readings of the wells without compound inhibition.
Fitting the dose-response curve: Take the log of the concentration as the X-axis, and the percentage of inhibition rate as the Y-axis. The dose response curve was fitted by the analysis software GraphPad Prism 5 with log(inhibitor) vs. response—Variable slope to obtain the inhibitory activity (IC50) of each compound.
In the case of `COc1cc2c(Oc3ccc(NC(=O)C4(C(=O)Nc5ccc(F)cc5)CC4)cc3F)ccnc2cc1OCCCCSC(C)=O` [Example 6, S-(4-((4-(2-Fluoro-4-(1-((4-fluorophenyl)aminoformyl)cyclopropane-1-carboxamido)phenoxy)-6-methoxyquinolin-7-yl)oxy)butyl)-acetylthioester], the IC50 turned out to be 79 nM.
In the case of `COc1cc2c(Oc3ccc(NC(=O)C4(C(=O)Nc5ccc(F)cc5)CC4)cc3F)ccnc2cc1OCCCCS` [Example 7, N-(3-fluoro-4-((7-(4-mercaptobutoxy)-6-methoxyquinolin-4-yl)oxy)phenyl)-N-(4-fluorophenyl) cyclopropane-1,1-diformamide], the IC50 was found to be 57 nM.
The same measure, in the same setting: the figure for `COc1cc2c(Oc3ccc(NC(=O)C4(C(=O)Nc5ccc(F)cc5)CC4)cc3F)ccnc2cc1OC/C=C/CCCS` [Example 27, (E)-N-(3-fluoro-4-((7-((6-mercaptohexyl-2-en-1-yl)oxy)-6-methoxyquinolin-4-yl)oxy)phenyl)-N-(4-fluorophenyl)cyclopropane-1,1-dimethylamid] is 33 nM; for `COc1cc2c(Oc3ccc(NC(=O)C4(C(=O)Nc5ccc(F)cc5)CC4)cc3F)ccnc2cc1OCCCSc1nnc(S)s1` [Example 54, N-(3-fluoro-4-((7-(3-((5-thio-1,3,4-trithiazol-2-yl)sulfanyl)propoxy)-6-methoxyquinolin-4-yl)oxy)phenyl)-N-(4-fluorophenyl)cyclopropane-1,1-diformamide] it is 54 nM.
For `COc1cc2c(Oc3ccc(NC(=O)C4(C(=O)Nc5ccc(F)cc5)CC4)cc3F)ccnc2cc1OCCNC(=O)NCCSC(C)=O` [Example 55], the half-maximal inhibitory concentration (IC50) was found to be 30 nM.
`COc1cc2c(Oc3ccc(NC(=O)C4(C(=O)Nc5ccc(F)cc5)CC4)cc3)ccnc2cc1OCCCCCNC(=O)CSC(C)=O` [Example 65]: the concentration for half-maximal inhibition (IC50) stood at 13 nM.
For the compound `CC(=O)SCCCCCCOc1cc2nccc(Oc3ccc(NC(=O)NC4CC4)c(Cl)c3)c2cc1C(N)=O` [Example 86, S-(7-((6-carbamoyl-4-(3-chloro-4-(3-cyclopropylurea)phenoxy)quinolin-7-yl)oxy)hexyl)thioacetate], the half-maximal inhibitory concentration (IC50) was 2.6 nM.
